Measurements taken from patent US4816447A, “Anti-viral guanine compounds” (priority 1984, dated 1989).

Legend:
[1] = test system: HSV-1 wild type Strain 17; assay: Drug sensitivity of HSV-1 wild type Strain 17; settings: HSV-1 wild type Strain 17
HSV-1 PAA ®1 = settings: HSV-1 PAA R1
Recombinant 6-19 = assay: Drug sensitivity of HSV-1/HSV-2 intertypic Recombinant 6-19; settings: Recombinant 6-19
Recombinant 6-26 = assay: Drug sensitivity of HSV-1/HSV-2 intertypic Recombinant 6-26; settings: Recombinant 6-26
Recombinant 6-30 = assay: Drug sensitivity of HSV-1/HSV-2 intertypic Recombinant 6-30; settings: Recombinant 6-30
Recombinant 6-34 = assay: Drug sensitivity of HSV-1/HSV-2 intertypic Recombinant 6-34; settings: Recombinant 6-34
[2] = target: T1, guanosine monophosphate kinase from hog brain (Sus scrofa, UniProt P31006); assay: Kinetic parameters with purified guanosine monophosphate kinase; assay type: biochemical; settings: for Vmax: 25°, pH 7.6
T1 sequence (P31006 1-198): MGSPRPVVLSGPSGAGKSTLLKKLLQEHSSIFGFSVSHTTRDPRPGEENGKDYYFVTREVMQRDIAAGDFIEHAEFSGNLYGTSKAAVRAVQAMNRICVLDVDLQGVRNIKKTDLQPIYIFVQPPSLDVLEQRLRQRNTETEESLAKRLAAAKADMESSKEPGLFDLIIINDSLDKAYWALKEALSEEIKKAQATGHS

mycoplasmal growth = assay: Inhibition of mycoplasmal growth in chickens; assay type: in vivo; settings: systemic, 875 μg/bird
[3] = Comparative solubilities in pH 7.2 buffer at 25°; assay type: physicochemical; settings: aqueous buffer; pH 7.2 phosphate buffer, 25°
Protocol: Comparative Solubilities in pH 7.2 Buffer at 25°
Solubilities were determined by suspending an excess amount of the compound in approximately 0.15 molar phosphate buffer (pH 7.2) and shaking overnight in a water bath at 25° to give a saturated solution. The concentration of the compound in the filtered solution was calculated on the basis of spectrophotometric measurements, i.e. comparison of the ultraviolet absorbance at the λmax for the saturated solution with the absorbance value observed for a known concentration of the compound.

[4] = test system: Herpes simplex virus type 1; assay: Tube dilution assay, viral cytopathology of HSV-1 in rabbit kidney cell cultures; settings: Human alphaherpesvirus 1, in Oryctolagus cuniculus, read-out: Minimum Effective Concentration, Strain Schooler
Genotoxicity = settings: qualitative statement
[5] = test system: Herpes simplex virus type I (HSV-1), strain Schooler; assay: Treatment of Herpes simplex virus infection in mice, repeat experiment (Table III); assay type: in vivo, HSV-1; ICR/Ha mice; settings: for Percent Survival: at 15 days
Protocol: Twenty gram ICR/Ha mice were injected intraperitoneally (ip) with 0.5 ml of a 10^-5 dilution of a stock preparation of Herpes simplex virus type I (HSV-1), strain Schooler. This virus challenge infected each animal with approximately 100 LD50. […] The placebo group was composed of 45 animals. All compounds were solubilized in physiological saline, pH 11.5.

[6] = test system: Herpes simplex virus type 2; assay: Tube dilution assay, viral cytopathology of HSV-2 in rabbit kidney cell cultures; settings: Human alphaherpesvirus 2, in Oryctolagus cuniculus, read-out: Minimum Effective Concentration
[7] = test system: guanosine monophosphate kinase and extract of HSV1-infected HeLa cells; assay type: biochemical; settings: gmp kinase, 4 h
Protocol: To the rest of the incubation mixtures were now added 0.04 units of guanosine monophosphate kinase and 20 μl of an extract of HSV1-infectedHeLa cells [The cells were infected with the virus at a multiplicity of 10 and harvested 8 hours later; they were suspended in a solution containing 0.35M KH2 PO4, pH 7.5, 0.5 mM dithiothreitol, 0.2% polyoxyethylene(9)octylphenol (Nonidet P-40), 14% glycerol at 50 mg/ml and after 30 minutes at 4° were centrifuged at […]; the supernatant liquid was the crude extract.] Incubation was continued at 30° for 4 more hours, after which samples were analyzed by HPLC and the amount of the triphosphate derivatives of each compound determined by integration of the area under the respective chromatographic peak.

[8] = test system: Herpes simplex virus type I (HSV-1), strain Schooler; assay: Treatment of Herpes simplex virus infection in mice, intraperitoneal HSV-1, subcutaneous treatment (Table II); assay type: in vivo, HSV-1; ICR/Ha mice; settings: for Percent Survival: at 15 days

Question: For O=C(O)CP(=O)(O)O [PAA, phosphonoacetic acid, reference compound], which “Sensitivity (S) or Resistance (R)” value [1] is on record?
Answer: S

Question: What about the “Sensitivity (S) or Resistance (R)” value (HSV-1 PAA ®1) of the same compound?
Answer: R

Question: And the “Sensitivity (S) or Resistance (R)” value (Recombinant 6-19)?
Answer: R

Question: What about the “Sensitivity (S) or Resistance (R)” value (HSV-2 TS6; HSV-2 TS6) of the same compound?
Answer: S

Question: And the “sensitivity of HSV-2 Ts6” value (HSV-2 TS6; HSV-2 Ts6)?
Answer: sensitive

Question: What about the “Sensitivity (S) or Resistance (R)” value (Recombinant 6-26) of the same compound?
Answer: S

Question: What about the “Sensitivity (S) or Resistance (R)” value (Recombinant 6-30) of the same compound?
Answer: S

Question: What about the “Sensitivity (S) or Resistance (R)” value (Recombinant 6-34) of the same compound?
Answer: R

Question: Which “relative efficiency as substrate (Vmax /Km) vs acycloguanosine monophosphate” value [2] does the source give for Nc1nc2c(ncn2COC(CO)COP(=O)(O)O)c(=O)[nH]1 (stereo not drawn) [Compound of Formula II Monophosphate] here?
Answer: 492 to 1

Question: What about the Vmax [2] of the same compound?
Answer: 7.1 µg/min/mg

Question: Which “inhibition of mycoplasmal growth” value (mycoplasmal growth) does the source give for CCCCCCCC(=O)OCC(COC(=O)CCCCCCC)OCn1cnc2c(=O)[nH]c(N)nc21 [Example 11, 9-(1,3-Dioctanoyloxy-2-propoxymethyl)guanine] here?
Answer: 75%

Question: With Nc1nc2c(ncn2[C@H]2C[C@H](O)[C@@H](COP(=O)(O)O)O2)c(=O)[nH]1 [Deoxyguanosine monophosphate, deoxyguanosine monophosphate, reference compound] as the compound, how does the Vmax [2] read?
Answer: 17.2 µg/min/mg

Question: For Nc1nc2c(ncn2COCC(O)CO)c(=O)[nH]1 (stereo not drawn) [Compound of Formula I, 9-(2,3-Dihydroxy-1-propoxymethyl)guanine], which solubility [3] is on record?
Answer: 3600 µg/mL

Question: And the minimal effective concentration [4]?
Answer: 1 to 3 µg/mL

Question: What about the genotoxicity (Genotoxicity) of the same compound?
Answer: lack of genotoxicity

Question: What about the “Avg. Survival Time” value ([5]; 3.1 mg/kg/day s.c.) of the same compound?
Answer: 7.2 days

Question: And the “Percent Survival” value ([5]; 3.1 mg/kg/day s.c.)?
Answer: 6%

Question: And the “Avg. Survival Time” value ([5]; 12.5 mg/kg/day s.c.)?
Answer: 9.8 days

Question: What about the “Percent Survival” value ([5]; 12.5 mg/kg/day s.c.) of the same compound?
Answer: 33%

Question: What about the “Avg. Survival Time” value ([5]; 50 mg/kg/day s.c.) of the same compound?
Answer: 10.5 days

Question: And the “Percent Survival” value ([5]; 50 mg/kg/day s.c.)?
Answer: 36%

Question: And the “calculated average relative potency to acycloguanosine (95% CI)” value ([5]; combined results of both mouse experiments)?
Answer: 9.2

Question: And the minimal effective concentration [6]?
Answer: 3 to 6 µg/mL

Question: What about the “converted to the triphosphate” value [7] of the same compound?
Answer: 55%

Question: And the “Avg. Survival Time” value ([8]; 3.1 mg/kg/day s.c.)?
Answer: 6.3 days

Question: And the “Percent Survival” value ([8]; 3.1 mg/kg/day s.c.)?
Answer: 0%

Question: What about the “Avg. Survival Time” value ([8]; 12.5 mg/kg/day s.c.) of the same compound?
Answer: 9.0 days

Question: What about the “Percent Survival” value ([8]; 12.5 mg/kg/day s.c.) of the same compound?
Answer: 26%

Question: What about the “Avg. Survival Time” value ([8]; 50 mg/kg/day s.c.) of the same compound?
Answer: 11.8 days

Question: And the “Percent Survival” value ([8]; 50 mg/kg/day s.c.)?
Answer: 60%
